# Measured values published in US6063778A, “Cephalosporin derivatives and processes for the preparation thereof” (Il-Dong Pharm. Co., Ltd., priority 1995, dated 2000).
# Where two headings read alike, the source gives them in different places.
# Legend:
# [1] = system: Staphylococcus aureus, Escherichia coli and Pseudomonas aeruginosa; experiment: MIC by agar dilution, comparison in words; type: cell-based; conditions: against Staphylococcus aureus, vs Cefotaxime
# Method: (§1) These MIC values were determined by agar dilution method: that is, two-fold dilutions of each of the test compounds were made and dispersed in a Mueller-Hinton Broth medium. Standard test strain which had the 10^6 CFU per ml was inoculated on the medium, and was incubated at 37° C. for 18 to 20 hours.
# [2] = system: Pseudomonas aeruginosa 1771; experiment: MIC by agar dilution, in vitro activity test; type: cell-based; conditions: 37° C., 18 to 20 hours, read-out: Minimal Inhibitory Concentration (MIC)
# Method: These MIC values were determined by agar dilution method: that is, two-fold dilutions of each of the test compounds were made and dispersed in a Mueller-Hinton Broth medium.
# Acute toxicity study = type: in vivo; conditions: in vivo
# Method: (§2) In order to illustrate usefulness of the compounds of the present invention, acute toxicity test of the compounds synthesized in the above Examples were carried out. Each dose of the compounds dissolved in saline and buffer solution (PH=7.0) was administered by intravenous or subcutaneous injection. Mortalities of the animals was recorded seven days latter.
# (§3) .asterisk-pseud. Mouse: Male ICR strain, 4 weeks
# [3] = system: Staphylococcus aureus 503; experiment: MIC by agar dilution, in vitro activity test; type: cell-based; conditions: 37° C., 18 to 20 hours, read-out: Minimal Inhibitory Concentration (MIC)
# Method: as §1
# Escherichia coli DC 0 = experiment: MIC by agar dilution, in vitro activity test; type: cell-based; conditions: DC0, 37° C., 18 to 20 hours, read-out: Minimal Inhibitory Concentration (MIC)
# Method: as §1
# [4] = system: Staphylococcus aureus SG511; experiment: MIC by agar dilution, in vitro activity test; type: cell-based; conditions: 37° C., 18 to 20 hours, read-out: Minimal Inhibitory Concentration (MIC)
# Method: as §1
# [5] = system: Streptococcus pyogenes 77A; experiment: MIC by agar dilution, in vitro activity test; type: cell-based; conditions: 37° C., 18 to 20 hours, read-out: Minimal Inhibitory Concentration (MIC)
# Method: as §1
# [6] = system: Pseudomonas aeruginosa 1592E; experiment: MIC by agar dilution, in vitro activity test; type: cell-based; conditions: 37° C., 18 to 20 hours, read-out: Minimal Inhibitory Concentration (MIC)
# Method: as §1
# Escherichia coli 078 = experiment: MIC by agar dilution, in vitro activity test; type: cell-based; conditions: 37° C., 18 to 20 hours, read-out: Minimal Inhibitory Concentration (MIC)
# Method: as §1
# [7] = system: Staphylococcus aureus 285; experiment: MIC by agar dilution, in vitro activity test; type: cell-based; conditions: 37° C., 18 to 20 hours, read-out: Minimal Inhibitory Concentration (MIC)
# Method: as §1
# Escherichia coli DC 2 = experiment: MIC by agar dilution, in vitro activity test; type: cell-based; conditions: DC2, 37° C., 18 to 20 hours, read-out: Minimal Inhibitory Concentration (MIC)
# Method: as §1
# [8] = system: Pseudomonas aeruginosa 1771M; experiment: MIC by agar dilution, in vitro activity test; type: cell-based; conditions: 20 h, read-out: Minimal Inhibitory Concentration (MIC)
# Method: as §1
# [9] = system: Streptococcus faecium MD 8b; experiment: MIC by agar dilution, in vitro activity test; type: cell-based; conditions: Enterococcus faecium, MD8B, 20 h, read-out: Minimal Inhibitory Concentration (MIC)
# Method: as §1
# Enterobacter cloace P99 = experiment: MIC by agar dilution, in vitro activity test; type: cell-based; conditions: P99, 20 h, read-out: Minimal Inhibitory Concentration (MIC)
# Method: as §1
# [10] = system: Pseudomonas aeruginosa 9027; experiment: MIC by agar dilution, in vitro activity test; type: cell-based; conditions: 37° C., 18 to 20 hours, read-out: Minimal Inhibitory Concentration (MIC)
# Method: as §1
# Salmonella typhimurium = experiment: MIC by agar dilution, in vitro activity test; type: cell-based; conditions: Salmonella enterica, 37° C., 18 to 20 hours, read-out: Minimal Inhibitory Concentration (MIC)
# Method: as §1
# [11] = system: Klebsiella aerogenes 1082E; experiment: MIC by agar dilution, in vitro activity test; type: cell-based; conditions: 37° C., 18 to 20 hours, read-out: Minimal Inhibitory Concentration (MIC)
# Method: as §1
# Escherichia coli TEM = experiment: MIC by agar dilution, in vitro activity test; type: cell-based; conditions: 20 h, read-out: Minimal Inhibitory Concentration (MIC)
# Method: as §1
# Escherichia coli 1507E = experiment: MIC by agar dilution, in vitro activity test; type: cell-based; conditions: read-out: Minimal Inhibitory Concentration (MIC)
# Method: as §1
# [12] = system: Enterobacter cloace 1321E; experiment: MIC by agar dilution, in vitro activity test; type: cell-based; conditions: 37° C., 18 to 20 hours, read-out: Minimal Inhibitory Concentration (MIC)
# Method: as §1
# [13] = system: Klebsiella aerogenes 1522E; experiment: MIC by agar dilution, in vitro activity test; type: cell-based; conditions: read-out: Minimal Inhibitory Concentration (MIC)
# Method: as §1
# Mouse = experiment: Acute toxicity study; type: in vivo; conditions: 10080 min
# Method: as §2, §3
# [14] = system: Streptococcus pyogenes 71A; experiment: MIC by agar dilution, in vitro activity test; type: cell-based; conditions: 37° C., 18 to 20 hours, read-out: Minimal Inhibitory Concentration (MIC)
# Method: as §1
# [15] = system: Pseudomonas aeruginosa 9071; experiment: MIC by agar dilution, in vitro activity test; type: cell-based; conditions: 37° C., 18 to 20 hours, read-out: Minimal Inhibitory Concentration (MIC)
# Method: as §1
# [16] = Escherichia coli 1507E, agar dilution, 37° C., 18 to 20 hours
# [17] = Klebsiella aerogenes 1522E, agar dilution, 37° C., 18 to 20 hours
# [18] = iv, i.v, male ICR mouse, 4 weeks, mortality at seven days, read-out: LD50 i.v
# [19] = sc, s.c, male ICR mouse, 4 weeks, mortality at seven days, read-out: LD50 s.c
Structure (SMILES),MICs compared with Cefotaxime [1],MIC [2] [µg/mL],MIC [3] [µg/mL],MIC (Escherichia coli DC 0) [µg/mL],MIC [4] [µg/mL],MIC [5] [µg/mL],MIC [6] [µg/mL],MIC (Escherichia coli 078) [µg/mL],MIC [7] [µg/mL],MIC (Escherichia coli DC 2) [µg/mL],MIC [8] [µg/mL],MIC [9] [µg/mL],MIC (Enterobacter cloace P99) [µg/mL],MIC [10] [µg/mL],MIC (Salmonella typhimurium) [µg/mL],MIC [11] [µg/mL],MIC (Escherichia coli TEM) [µg/mL],MIC (Escherichia coli 1507E; [16]) [µg/mL],MIC [12] [µg/mL],"MIC [13, 17] [µg/mL]",also measured
"CC[N+](C)(CC=CC(N)=O)C/C=C/C1=C(C(=O)[O-])N2C(=O)[C@@H](NC(=O)/C(=N\OC)c3csc(N)n3)[C@H]2SC1 (stereo partly drawn) [Example 6, 7β-[(Z)-2-(2-aminothiazol-4-yl)-2-methoxyiminoacetamido]-3-[(E)-3-[(1-carbamoyl-1-propen-3-yl)-3-ethylmethylammonio]-1-propen-1-yl]3-cephem-4-carboxylate]",superior to that of Cefotaxime,3.1,0.8,< 0.006,0.8,0.012,3.1,0.12,0.4,0.05,0.4,> 100,1.6,6.3,0.1,3.1,0.05,0.05,0.025,0.1,"LD50 at 168 h (Acute toxicity study; mouse, iv, i.v, male ICR mouse, 4 weeks, mortality at seven days, read-out: LD50 i.v): > 3000 mg/kg; LD50 at 168 h (Acute toxicity study; mouse, iv, intravenous routes, read-out: acute toxicity in intravenous routes): > 2000 mg/kg; LD50 at 168 h (Acute toxicity study; mouse, sc, s.c, male ICR mouse, 4 weeks, mortality at seven days, read-out: LD50 s.c): > 3000 mg/kg"
"CC[N+](C)(CC=CC(N)=O)C/C=C/C1=C(C(=O)[O-])N2C(=O)[C@@H](NC(=O)/C(=N\OCCF)c3csc(N)n3)[C@H]2SC1 (stereo partly drawn) [Example 12, 7β-[(Z)-2-(2-aminothiazol-4-yl)-2-fluoroethoxyiminoacetamdo]-3-[(E)-3-[(1-carbamoyl-1-propen-3-yl)-3-ethylmethylammonio]-1-propen-1-yl]3-cephem-4-carboxylate]",superior to that of Cefotaxime,6.3,0.8,< 0.006,0.8,0.025,6.3,0.025,0.8,0.05,0.8,> 100,1.6,12.5,0.4,3.1,0.05,0.05,0.05,0.1,acute toxicity in intravenous routes (Mouse): > 2000 mg/kg; acute toxicity in subcutaneous routes (Mouse): > 3000 mg/kg; LD50 at 168 h (Acute toxicity study; [18]): > 2000 mg/kg; LD50 at 168 h (Acute toxicity study; [19]): > 3000 mg/kg
"Cc1ncsc1C[N+](C)(C)C/C=C/C1=C(C(=O)[O-])N2C(=O)[C@@H](NC(=O)/C(=N\OCCF)c3nsc(N)n3)[C@H]2SC1 [Example 14, 7β-[(Z)-2-(5-amino-1,2,4-thiadiazol-3-yl)-2-fluoroethoxyiminoacetamido]-3-[(E)-3-[(4-methylthiazol-5-yl)-methyldimethylammonio]-1-propen-1-yl]3-cephem-4-carboxylate]",superior to that of Cefotaxime,3.1,0.8,< 0.006,0.4,–,3.1,0.012,0.8,0.05,0.4,> 100,0.4,–,0.1,3.1,0.025,–,0.012,–,"MIC [14]: 0.05 µg/mL; MIC [15]: 12.5 µg/mL; MIC (Escherichia coli 1507E; Escherichia coli, 1507E, 20 h): 0.025 µg/mL; MIC ([13]; Klebsiella aerogenes, 1522E, 20 h): 0.025 µg/mL"
"CC[N+](C)(CC=CC(N)=O)C/C=C/C1=C(C(=O)[O-])N2C(=O)[C@@H](NC(=O)/C(=N\OCCF)c3nsc(N)n3)[C@H]2SC1 (stereo partly drawn) [Example 15, 7β-[(Z)-2-(5-amino-1,2,4-thiadiazol-3-yl)-2-fluoroethoxyiminoacetamido]-3-[(E)-3-[(1-carbamoyl-1-propen-3-yl)-3-ethylmethylammonio]-1-propen-1-yl]3-cephem-4-carboxylate]",–,3.1,0.8,0.012,0.8,–,3.1,0.025,0.8,0.1,0.8,> 100,0.8,–,0.2,3.1,0.05,0.1,0.05,0.05,acute toxicity in intravenous routes (Mouse): > 2000 mg/kg; acute toxicity in subcutaneous routes (Mouse): > 3000 mg/kg; LD50 at 168 h (Acute toxicity study; [18]): > 2000 mg/kg; LD50 at 168 h (Acute toxicity study; [19]): > 3000 mg/kg; MIC [14]: 0.025 µg/mL; MIC [15]: 3.1 µg/mL
